System: penis of a person
Assay: topical application of the compositions (massage oil) to a person's penis, twice daily
Format: in vivo, human
Details: ingredient as included in the compositions, applied topically to a person's penis as a massage oil

## C=C(C)[C@@H]1CCC(C)=C[C@H]1c1c(O)cc(CCCCC)cc1O [CBD, Cannabidiol]
  effect on sexual arousal, performance, libido and penis size: enhances sexual arousal and performance and stamina
